Measurements taken from the NIST ThermoML archive (doi:10.1016/j.jct.2019.05.002).
Numbers after ± are expanded uncertainties.

How the values were obtained:
[1] = 100 kPa, Liquid; for speed of sound: Frequency=3 MHz, Single path-length method; for mass density: Vibrating tube method
[2] = xn = mol fraction of the nth substance listed; conditions: 100 kPa, Liquid, x1 = 1; for speed of sound: Frequency=3 MHz, Single path-length method; for mass density: Vibrating tube method

CCC(O)CO (centres undefined) [1,2-butanediol]
[1]
Conditions | mass density [kg/m3] | speed of sound [m/s]
298.15 K | 998.56 ± 2 | 1452.5 ± 1.4
303.15 K | 994.75 ± 2 | 1437.9 ± 1.4
308.15 K | 990.92 ± 2 | 1423.3 ± 1.4
313.15 K | 987.11 ± 2 | 1408.7 ± 1.4
318.15 K | 983.28 ± 2 | 1394.1 ± 1.4
323.15 K | 979.46 ± 2 | 1379.5 ± 1.4

CCCC(=O)OCC [ethyl butanoate] + CCC(O)CO
[2]
Conditions | mass density [kg/m3] | speed of sound [m/s]
298.15 K | 874.31 ± 2 | 1171.8 ± 1
303.15 K | 868.85 ± 2 | 1151.1 ± 1
308.15 K | 863.4 ± 2 | 1130.2 ± 1
313.15 K | 857.94 ± 2 | 1109 ± 1
318.15 K | 852.49 ± 2 | 1088 ± 1
323.15 K | 847.03 ± 2 | 1067.1 ± 1

CCCC(=O)OCC [ethyl butanoate] + OCCCCO
[2]
Conditions | mass density [kg/m3] | speed of sound [m/s]
298.15 K | 874.31 ± 2 | 1171.8 ± 1
303.15 K | 868.85 ± 2 | 1151.1 ± 1
308.15 K | 863.4 ± 2 | 1130.2 ± 1
313.15 K | 857.94 ± 2 | 1109 ± 1
318.15 K | 852.49 ± 2 | 1088 ± 1
323.15 K | 847.03 ± 2 | 1067.1 ± 1

CC(O)CCO (centres undefined) [1,3-butanediol]
[1]
Conditions | mass density [kg/m3] | speed of sound [m/s]
298.15 K | 1001.87 ± 2 | 1527.9 ± 1.4
303.15 K | 998.41 ± 2 | 1514 ± 1.4
308.15 K | 994.94 ± 2 | 1500.1 ± 1.4
313.15 K | 991.49 ± 2 | 1486.2 ± 1.4
318.15 K | 988.02 ± 2 | 1472.3 ± 1.4
323.15 K | 984.56 ± 2 | 1458.4 ± 1.4

CCCC(=O)OCC [ethyl butanoate] + CC(O)CCO
[2]
Conditions | mass density [kg/m3] | speed of sound [m/s]
298.15 K | 874.31 ± 2 | 1171.8 ± 1
303.15 K | 868.85 ± 2 | 1151.1 ± 1
308.15 K | 863.4 ± 2 | 1130.2 ± 1
313.15 K | 857.94 ± 2 | 1109 ± 1
318.15 K | 852.49 ± 2 | 1088 ± 1
323.15 K | 847.03 ± 2 | 1067.1 ± 1

OCCCCO [1,4-butanediol]
[1]
Conditions | mass density [kg/m3] | speed of sound [m/s]
298.15 K | 1012.8 ± 2 | 1601.9 ± 1.1
303.15 K | 1009.77 ± 2 | 1590.3 ± 1.1
308.15 K | 1006.74 ± 2 | 1578.6 ± 1.1
313.15 K | 1003.7 ± 2 | 1567 ± 1.1
318.15 K | 1000.67 ± 2 | 1555.3 ± 1.1
323.15 K | 997.63 ± 2 | 1543.7 ± 1.1

CCCC(=O)OCC [ethyl butanoate]
[1]
Conditions | mass density [kg/m3] | speed of sound [m/s]
298.15 K | 874.31 ± 2 | 1171.8 ± 1
303.15 K | 868.85 ± 2 | 1151.1 ± 1
308.15 K | 863.4 ± 2 | 1130.2 ± 1
313.15 K | 857.94 ± 2 | 1109 ± 1
318.15 K | 852.49 ± 2 | 1088 ± 1
323.15 K | 847.03 ± 2 | 1067.1 ± 1
